Values of other authors as cited in US20230079706A1, “Solid Cleansing Compositions and Methods for the Same” (Colgate-Palmolive Company, priority 2021, published 2023).

System: melanin
Conditions: personal care compositions with lower than 2.0 wt % Kojic acid

O=c1cc(CO)occ1O [Kojic acid, 5-Hydroxy-2-(hydroxymethyl)-4H-pyran-4-one]
Efficacy in the reduction of melanin and/or the inhibition of melanin production: poor to no efficacy
